Source: patent US20190309272A1, “Genetically Modified Cell Lines Including a TP53 Modification and Methods of Use” (UNIVERSITY OF SOUTH CAROLINA, priority 2018, published 2019)
Where a name gives a salt, the structure may show the parent alone. Read-outs that look alike come from different tables or passages of the source.

Assays:
Format in all cases: cell-based, Human
MCF7 TP53 KO 3.4 pool = experiment: Drug screening, resazurin, TP53 KO 3.4 pool
MCF7 WT Parental pool = experiment: Drug screening, resazurin, MCF7 wild type parental pool
MCF7 TP53 KO 5.6 pool = experiment: Drug screening, resazurin, TP53 KO 5.6 pool
[1] = ten-day drug treatment, 156.25 nM to 10 μM, resazurin fluorescence

NC(=O)NO [Hydroxyurea]
TP53 KO 3.4 pool (AUC) (MCF7 TP53 KO 3.4 pool; [1]): 8.069 | MCF7 WT Parental pool (AUC) (MCF7 WT Parental pool; [1]): 9.246 | TP53 KO 5.6 pool (AUC) (MCF7 TP53 KO 5.6 pool; [1]): 8.455

Nc1cccc2c1CN(C1CCC(=O)NC1=O)C2=O (stereo not drawn) [Lenalidomide]
TP53 KO 3.4 pool (AUC) (MCF7 TP53 KO 3.4 pool; [1]): 8.782 | MCF7 WT Parental pool (AUC) (MCF7 WT Parental pool; [1]): 8.724 | TP53 KO 5.6 pool (AUC) (MCF7 TP53 KO 5.6 pool; [1]): 8.801

CNC(=O)c1cc(Oc2ccc(NC(=O)Nc3ccc(Cl)c(C(F)(F)F)c3)c(F)c2)ccn1 [Regorafenib]
TP53 KO 3.4 pool (AUC) (MCF7 TP53 KO 3.4 pool; [1]): 5.541 | MCF7 WT Parental pool (AUC) (MCF7 WT Parental pool; [1]): 3.995 | TP53 KO 5.6 pool (AUC) (MCF7 TP53 KO 5.6 pool; [1]): 5.25

COc1cccc2c1C(=O)c1c(O)c3c(c(O)c1C2=O)C[C@@](O)(C(=O)CO)C[C@@H]3O[C@H]1C[C@H](N)[C@H](O)[C@H](C)O1 [Doxorubicin Hydrochloride]
TP53 KO 3.4 pool (AUC) (MCF7 TP53 KO 3.4 pool): 0.9013 | MCF7 WT Parental pool (AUC) (MCF7 WT Parental pool; [1]): 0.9435 | TP53 KO 5.6 pool (AUC) (MCF7 TP53 KO 5.6 pool): 1.009

Nc1ccn([C@@H]2O[C@H](CO)[C@@H](O)C2(F)F)c(=O)n1 [Gemcitabine Hydrochloride]
TP53 KO 3.4 pool (AUC) (MCF7 TP53 KO 3.4 pool; [1]): 1.464 | MCF7 WT Parental pool (AUC) (MCF7 WT Parental pool; [1]): 2.888 | TP53 KO 5.6 pool (AUC) (MCF7 TP53 KO 5.6 pool; [1]): 1.827

COc1cc([C@@H]2c3cc4c(cc3[C@@H](O[C@@H]3O[C@@H]5CO[C@@H](c6cccs6)O[C@H]5[C@H](O)[C@H]3O)[C@H]3COC(=O)[C@H]23)OCO4)cc(OC)c1O [Teniposide]
TP53 KO 3.4 pool (AUC) (MCF7 TP53 KO 3.4 pool; [1]): 0.9417 | MCF7 WT Parental pool (AUC) (MCF7 WT Parental pool; [1]): 1.342 | TP53 KO 5.6 pool (AUC) (MCF7 TP53 KO 5.6 pool; [1]): 1.041

CS(=O)(=O)OCCCCOS(C)(=O)=O [Busulfan]
TP53 KO 3.4 pool (AUC) (MCF7 TP53 KO 3.4 pool; [1]): 9.336 | MCF7 WT Parental pool (AUC) (MCF7 WT Parental pool; [1]): 9.118 | TP53 KO 5.6 pool (AUC) (MCF7 TP53 KO 5.6 pool; [1]): 8.834

c1cc(CN2CCCNCCNCCCNCC2)ccc1CN1CCCNCCNCCCNCC1 [Plerixafor]
TP53 KO 3.4 pool (AUC) (MCF7 TP53 KO 3.4 pool; [1]): 8.893 | MCF7 WT Parental pool (AUC) (MCF7 WT Parental pool; [1]): 9 | TP53 KO 5.6 pool (AUC) (MCF7 TP53 KO 5.6 pool; [1]): 8.524

CNNCc1ccc(C(=O)NC(C)C)cc1 [Procarbazine Hydrochloride]
TP53 KO 3.4 pool (AUC) (MCF7 TP53 KO 3.4 pool; [1]): 10.04 | MCF7 WT Parental pool (AUC) (MCF7 WT Parental pool; [1]): 8.119 | TP53 KO 5.6 pool (AUC) (MCF7 TP53 KO 5.6 pool; [1]): 10.7

Nc1ncn([C@@H]2O[C@H](CO)[C@@H](O)[C@H]2O)c(=O)n1 [Azactidine]
TP53 KO 3.4 pool (AUC) (MCF7 TP53 KO 3.4 pool; [1]): 9.05 | MCF7 WT Parental pool (AUC) (MCF7 WT Parental pool; [1]): 8.861 | TP53 KO 5.6 pool (AUC) (MCF7 TP53 KO 5.6 pool; [1]): 6.373

CC[C@@]1(O)C(=O)OCc2c1cc1n(c2=O)Cc2cc3c(CN(C)C)c(O)ccc3nc2-1 [Topotecan Hydrochloride]
TP53 KO 3.4 pool (AUC) (MCF7 TP53 KO 3.4 pool; [1]): 0.7814 | MCF7 WT Parental pool (AUC) (MCF7 WT Parental pool; [1]): 0.7919 | TP53 KO 5.6 pool (AUC) (MCF7 TP53 KO 5.6 pool; [1]): 0.8044

Cc1ccc(C(=O)Nc2ccc(CN3CCN(C)CC3)c(C(F)(F)F)c2)cc1C#Cc1cnc2cccnn12 [Ponatinib]
TP53 KO 3.4 pool (AUC) (MCF7 TP53 KO 3.4 pool): 2.944 | MCF7 WT Parental pool (AUC) (MCF7 WT Parental pool): 3.312 | TP53 KO 5.6 pool (AUC) (MCF7 TP53 KO 5.6 pool): 3.632

COc1cc([C@@H]2c3cc4c(cc3[C@@H](O[C@@H]3O[C@@H]5CO[C@@H](C)O[C@H]5[C@H](O)[C@H]3O)[C@H]3COC(=O)[C@H]23)OCO4)cc(OC)c1O [Etoposide]
TP53 KO 3.4 pool (AUC) (MCF7 TP53 KO 3.4 pool; [1]): 2.818 | MCF7 WT Parental pool (AUC) (MCF7 WT Parental pool; [1]): 2.93 | TP53 KO 5.6 pool (AUC) (MCF7 TP53 KO 5.6 pool; [1]): 3.06

CC(C)(C#N)c1cc(Cn2cncn2)cc(C(C)(C)C#N)c1 [Anastrozole]
TP53 KO 3.4 pool (AUC) (MCF7 TP53 KO 3.4 pool; [1]): 8.067 | MCF7 WT Parental pool (AUC) (MCF7 WT Parental pool; [1]): 8.01 | TP53 KO 5.6 pool (AUC) (MCF7 TP53 KO 5.6 pool; [1]): 8.828

COc1cccc2c1C(=O)c1c(O)c3c(c(O)c1C2=O)C[C@@](O)(C(=O)CO)C[C@@H]3O[C@H]1C[C@H](N)[C@@H](O)[C@H](C)O1 [Epirubicin Hydrochloride]
TP53 KO 3.4 pool (AUC) (MCF7 TP53 KO 3.4 pool): 0.9399 | MCF7 WT Parental pool (AUC) (MCF7 WT Parental pool; [1]): 0.8944 | TP53 KO 5.6 pool (AUC) (MCF7 TP53 KO 5.6 pool): 1.019
